Results reported in patent publication US4683239A, “3-diphenyl substituted octahydroindolizine analgesic compounds” (McNeilab, Inc., priority 1986, dated 1987).
Where a name gives a salt, the structure may show the parent alone.

test system: mice; assay: Mouse Acetylcholine-Bromide-Induced Abdominal Constriction Assay; type: in vivo; conditions: Mus musculus, po, 0.5 h, oral (p.o.), 30 min before i.p. 5.5 mg/kg acetylcholine bromide, dose which inhibits writhing by 50%
Method: […]., 32: 295-310, 1968, with minor modifications was used to assess analgesic potency of the compounds of formula (I). The test drugs or appropriate vehicle were administered orally (p.o.) and 30 minutes later the animals received an intraperitoneal (i.p.) injection of 5.5 mg/kg acetylcholine bromide (Matheson, Coleman and Bell, East Rutherford, NJ). The mice were then placed in groups of four into glass bell jars and observed for a ten minute observation period for the occurrence of a writhe (defined as a wave of constriction and elongation passing caudally along the abdominal wall, accompanied by a twisting of the trunk and followed by extension of the hind limbs). The percent inhibition of writhing (equated to % analgesia) was calculated as follows: The % Inhibition of writhing, i.e., % analgesia is equal to the difference between the No. of control animals writhing and the No. of drug-treated animals writhing times 100 divided by the No. of control animals writhing. At least 20 animals were used for control and in each of the drug treated groups. Four doses were used to determine each dose response curve and ED50 (that dose which inhibits writhing by 50%). The ED50 values and their 95% fiducial limits were determined by a computer assisted probit analysis.

**Q.** How did the ED50 turn out when `CC(=O)Nc1cccc(C#Cc2ccc([C@@H]3CC[C@@H]4CCCCN43)cc2)c1` (relative stereo) [Example 2, N-[3-[[4-(trans-Octahydro-3-indolizinyl)phenyl]ethynyl]phenyl]acetamide] was run?
**A.** 17.6 mg/kg

**Q.** `Cl.c1ccc(COc2ccc([C@@H]3CC[C@@H]4CCCCN43)cc2)cc1` (relative stereo) [Example 3b, trans-Octahydro-3-[4-(phenylmethoxy)phenyl]indolizine Hydrochloride] was tested. Which ED50 did it give?
**A.** 16.8 mg/kg

**Q.** For `CC(=O)Nc1cccc(/C=C\c2ccc([C@H]3CC[C@H]4CCCCN43)cc2)c1` (relative stereo) [Example 4], which ED50 is on record?
**A.** 6.9 mg/kg

**Q.** How did the ED50 turn out when `Cl.c1ccc(CCc2ccc([C@@H]3CC[C@@H]4CCCCN43)cc2)cc1` (relative stereo) [Example 6, trans-Octahydro-3-[4-(2-phenylethyl)phenyl]indolizine Hydrochloride] was run?
**A.** 6.9 mg/kg

**Q.** With `CC(=O)Nc1ccc(Oc2ccc([C@H]3CC[C@H]4CCCCN43)cc2)cc1` (relative stereo) [Example 12f, N-[4-[4-trans-Octahydro-3-indolizinyl)phenoxy]phenylacetamide] as the molecule, how does the ED50 read?
**A.** ≤ 5 mg/kg

**Q.** With `Cc1ccc(Sc2ccc(C3CCC4CCCCN43)cc2)cc1.Cl` (stereo not drawn) [Example 7, 3-[4-[(4-Methylphenyl)thio]phenyl]octahydroindolizine Hydrochloride] as the molecule, how does the ED50 read?
**A.** 20 to 30 mg/kg

same assay, conditions: oral (p.o.), @ 30 mg/kg, 30 min before i.p. 5.5 mg/kg acetylcholine bromide, printed in ED50 column

**Q.** `CC(=O)Nc1cccc(CCc2ccc([C@@H]3CC[C@@H]4CCCCN43)cc2)c1` (relative stereo) [Example 9, N-[3-[2-[4-(trans-Octahydro-3-indolizinyl)phenyl]ethyl]phenyl]acetamide] was tested. Which “% Inhibition of writhing (% analgesia)” value did it give?
**A.** 86%

**Q.** For `CC(=O)Nc1cccc(Sc2ccc([C@H]3CC[C@H]4CCCCN43)cc2)c1` (relative stereo) [Example 11, N-[3-[[4-trans-Octahydro-3-indolizinyl)phenyl]thio]phenyl]acetamide Hydrochloride Hydrate], which “% Inhibition of writhing (% analgesia)” value is on record?
**A.** 73%

**Q.** How did the “% Inhibition of writhing (% analgesia)” value turn out when `CC(=O)Nc1ccc(Sc2ccc([C@@H]3CC[C@@H]4CCCCN43)cc2)c(Cl)c1.Cl` (relative stereo) [Example 13e] was run?
**A.** 46%
